Values joined by “and” are separate entries in the source; they are usually repeats but may differ in a detail not shown here. Equal values may be shown once. Toxic doses and inconclusive results are not listed. Square brackets hold non-standard residues; d marks the D form. Peptide text beside a SMILES is read from it. * marks the point of attachment. Arg(NO2) = N=C(NCCC[CH](N)C(=O)O)N[N+](=O)[O-]; Cbz = O=C(OCc1ccccc1)*
Test system: L1210 leukemia ip in BDF1 mice, survival T/C
Experiment: NCI In Vivo Anticancer Drug Screen. Data for tumor model L1210 Leukemia (intraperitoneal) in B6D2F1 (BDF1) mice
Conditions: endpoint: mean survival time, higher = longer survival
Method in brief: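 Antitumor effect is assessed in tumor-bearing animals. Survival in the compound arm is compared with a vehicle-dosed control arm and expressed as their quotient.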

[1] = dose: 100.0 mg/kg/injection, schedule: Q01DX001 (ip), vehicle: carboxymethylcellulose (CMC)
[2] = dose: 200.0 mg/kg/injection, schedule: Q01DX001 (ip), vehicle: carboxymethylcellulose (CMC)
[3] = dose: 100.0 mg/kg/injection, schedule: Q04DX003 (ip), vehicle: Klucel (hydroxypropylcellulose) (HPC)
[4] = dose: 200.0 mg/kg/injection, schedule: Q04DX003 (ip), vehicle: Klucel (hydroxypropylcellulose) (HPC)
[5] = dose: 400.0 mg/kg/injection, schedule: Q04DX003 (ip), vehicle: Klucel (hydroxypropylcellulose) (HPC)
[6] = dose: 100.0 mg/kg/injection, schedule: Q04DX003 (ip), vehicle: saline
[7] = dose: 200.0 mg/kg/injection, schedule: Q04DX003 (ip), vehicle: saline
[8] = dose: 400.0 mg/kg/injection, schedule: Q04DX003 (ip), vehicle: saline
[9] = dose: 100.0 mg/kg/injection, schedule: Q01DX009 (ip), vehicle: Klucel (hydroxypropylcellulose) (HPC)
[10] = dose: 200.0 mg/kg/injection, schedule: Q01DX009 (ip), vehicle: Klucel (hydroxypropylcellulose) (HPC)
[11] = dose: 400.0 mg/kg/injection, schedule: Q01DX009 (ip), vehicle: Klucel (hydroxypropylcellulose) (HPC)
[12] = dose: 50.0 mg/kg/injection, schedule: Q01DX001 (ip), vehicle: saline
[13] = dose: 100.0 mg/kg/injection, schedule: Q01DX001 (ip), vehicle: saline
[14] = dose: 400.0 mg/kg/injection, schedule: Q01DX001 (ip), vehicle: carboxymethylcellulose (CMC)
[15] = dose: 200.0 mg/kg/injection, schedule: Q01DX001 (ip), vehicle: saline
[16] = dose: 400.0 mg/kg/injection, schedule: Q01DX001 (ip), vehicle: saline

NNc1ncnc2c1ncn2C1OC(CO)C(O)C1O (centres undefined)
T/C (dose: 1.0 mg/kg/injection, schedule: Q01DX015 (ip), vehicle: carboxymethylcellulose (CMC)): 106 % of control | T/C (dose: 3.0 mg/kg/injection, schedule: Q01DX015 (ip), vehicle: carboxymethylcellulose (CMC)): 109 % of control | T/C (dose: 6.0 mg/kg/injection, schedule: Q01DX015 (ip), vehicle: carboxymethylcellulose (CMC)): 106 % of control | T/C (dose: 12.0 mg/kg/injection, schedule: Q01DX015 (ip), vehicle: carboxymethylcellulose (CMC)): 97 % of control | T/C (dose: 20.0 mg/kg/injection, schedule: Q01DX015 (ip), vehicle: carboxymethylcellulose (CMC)): 106 % of control | T/C (dose: 25.0 mg/kg/injection, schedule: Q01DX015 (ip), vehicle: carboxymethylcellulose (CMC)): 118 % of control | T/C (dose: 30.0 mg/kg/injection, schedule: Q01DX015 (ip), vehicle: carboxymethylcellulose (CMC)): 108 % of control | T/C (dose: 44.0 mg/kg/injection, schedule: Q01DX015 (ip), vehicle: carboxymethylcellulose (CMC)): 122 % of control | T/C (dose: 50.0 mg/kg/injection, schedule: Q01DX001 (ip), vehicle: carboxymethylcellulose (CMC)): 108 % of control | T/C (dose: 50.0 mg/kg/injection, schedule: Q01DX Z (ip), vehicle: other): 122 % of control | T/C (dose: 75.0 mg/kg/injection, schedule: Q01DX Z (ip), vehicle: other): 121 % of control | T/C [1]: 116 % of control | T/C (dose: 100.0 mg/kg/injection, schedule: Q01DX015 (ip), vehicle: carboxymethylcellulose (CMC)): 124 % of control | T/C (dose: 100.0 mg/kg/injection, schedule: Q01DX Z (ip), vehicle: other): 152 % of control | T/C (dose: 150.0 mg/kg/injection, schedule: Q01DX015 (ip), vehicle: carboxymethylcellulose (CMC)): 86 % of control | T/C (dose: 150.0 mg/kg/injection, schedule: Q01DX Z (ip), vehicle: other): 95 % of control | T/C (dose: 186.75 mg/kg/injection, schedule: Q01DX015 (ip), vehicle: gum acacia): 83 % of control | T/C [2]: 111 % of control | T/C (dose: 220.0 mg/kg/injection, schedule: Q01DX015 (ip), vehicle: carboxymethylcellulose (CMC)): 95 % of control

O=C1OCCC1n1cc(F)c(=O)[nH]c1=O (centres undefined)
T/C [3]: 102 % of control | T/C [4]: 98 % of control | T/C [5]: 96 % of control

Nc1nc(-c2ccc3c(c2)Sc2ccccc2O3)cs1
T/C (dose: 75.0 mg/kg/injection, schedule: Q04DX003 (ip), vehicle: saline): 93 % of control | T/C (dose: 150.0 mg/kg/injection, schedule: Q04DX003 (ip), vehicle: saline): 91 % of control | T/C (dose: 300.0 mg/kg/injection, schedule: Q04DX003 (ip), vehicle: saline): 91 % of control

CCOC(CCCN=CN(C)C)OCC
T/C [6]: 102 % of control | T/C [7]: 100 % of control | T/C [8]: 102 % of control

Cc1ccc(S(=O)(=O)OCC(O)C2OCOC3COCOC32)cc1 (centres undefined)
T/C (dose: 100.0 mg/kg/injection, schedule: Q01DX001 (ip), vehicle: Klucel (hydroxypropylcellulose) (HPC)): 97 % of control | T/C (dose: 200.0 mg/kg/injection, schedule: Q01DX001 (ip), vehicle: Klucel (hydroxypropylcellulose) (HPC)): 101 % of control

CN(C)c1ccc(C(C[N+](=O)[O-])(c2ccc(N(C)C)cc2)c2ccc(N(C)C)cc2)cc1
T/C [9]: 93 % of control | T/C [3]: 103 % of control | T/C [10]: 100 % of control | T/C [4]: 93 % of control | T/C [11]: 97 % of control | T/C [5]: 90 % of control

O=[N+]([O-])c1cc(CCl)ccc1CCl
T/C (dose: 50.0 mg/kg/injection, schedule: Q04DX003 (ip), vehicle: Klucel (hydroxypropylcellulose) (HPC)): 86 % of control | T/C [3]: 92 % of control | T/C [4]: 98 % of control

O=c1[nH]cnc2c1nnn2C1CC(O)C(CO)O1 (centres undefined)
T/C [12]: 106 % of control | T/C [13]: 116 % of control | T/C [6]: 100 % of control | T/C [7]: 103 % of control | T/C [8]: 111 % of control

CCCCCC[CH2][Sn]([CH2]CCCCCC)([CH2]CCCCCC)[CH2]CCCCCC
T/C [9]: 103 % of control | T/C [10]: 101 % of control | T/C [11]: 101 % of control

C1=CC2CC1CC2/C=N\N=C\C1CC2C=CC1C2 (centres undefined)
T/C (dose: 100.0 mg/kg/injection, schedule: Q04DX002 (ip), vehicle: Klucel (hydroxypropylcellulose) (HPC)): 118 % of control | T/C (dose: 200.0 mg/kg/injection, schedule: Q04DX002 (ip), vehicle: Klucel (hydroxypropylcellulose) (HPC)): 121 % of control

Nc1nc(Cl)nc(C(Cl)(Cl)Cl)c1Cl (tested in a mixture with another compound)
T/C (dose: 50.0 mg/kg/injection, schedule: Q01DX009 (ip), vehicle: Klucel (hydroxypropylcellulose) (HPC)): 94 % of control | T/C [9]: 87 % of control | T/C [10]: 97 % of control

CCCCC[C@H](CN(C)C)[C@H](O)/C=C/c1ccc(Cl)cc1
T/C (dose: 12.5 mg/kg/injection, schedule: Q04DX002 (ip), vehicle: saline): 113 % of control | T/C (dose: 25.0 mg/kg/injection, schedule: Q04DX002 (ip), vehicle: saline): 110 % of control | T/C (dose: 50.0 mg/kg/injection, schedule: Q04DX002 (ip), vehicle: saline): 102 % of control

O/N=C1\c2ccccc2-c2ccc(Br)cc21
T/C [1]: 97 % of control | T/C [2]: 117 % of control | T/C [14]: 103 % of control

Cc1ccc([N+](=O)[O-])cc1NC(=O)NNC(=O)CNC(=O)Nc1ccc(F)cc1
T/C (dose: 25.0 mg/kg/injection, schedule: Q01DX009 (ip), vehicle: saline with Tween-80): 94 % of control | T/C (dose: 50.0 mg/kg/injection, schedule: Q01DX009 (ip), vehicle: saline with Tween-80): 86 % of control | T/C (dose: 100.0 mg/kg/injection, schedule: Q01DX009 (ip), vehicle: saline with Tween-80): 100 % of control

Nc1nc(N)c2c(Cl)c(CNc3ccc(C(=O)NC(CCCC(=O)O)C(=O)O)cc3)ccc2n1 (centres undefined)
T/C (dose: 1.0 mg/kg/injection, schedule: Q01DX009 (ip), vehicle: saline): 170 % of control | T/C (dose: 2.0 mg/kg/injection, schedule: Q01DX009 (ip), vehicle: saline): 150 % of control and 152 % of control | T/C (dose: 4.0 mg/kg/injection, schedule: Q01DX009 (ip), vehicle: saline): 178 % of control and 206 % of control

CCS(=O)(=O)C1CCC1OC(C)(C)C (centres undefined)
T/C [13]: 108 % of control | T/C [15]: 108 % of control | T/C [16]: 102 % of control

Cc1nc2nc(N)nc(N)c2nc1C
T/C (dose: 15.63 mg/kg/injection, schedule: Q01DX Z (ip), vehicle: carboxymethylcellulose (CMC)): 103 % of control | T/C (dose: 31.25 mg/kg/injection, schedule: Q01DX Z (ip), vehicle: carboxymethylcellulose (CMC)): 93 % of control | T/C [12]: 117 % of control | T/C (dose: 62.5 mg/kg/injection, schedule: Q01DX Z (ip), vehicle: carboxymethylcellulose (CMC)): 91 % of control | T/C [13]: 102 % of control | T/C (dose: 125.0 mg/kg/injection, schedule: Q01DX Z (ip), vehicle: carboxymethylcellulose (CMC)): 92 % of control | T/C [15]: 102 % of control | T/C [16]: 100 % of control

Cc1cc(C)c(Br)c(C)c1C
T/C [13]: 104 % of control | T/C [15]: 113 % of control | T/C [16]: 116 % of control

Nc1ccc(CCc2ccc(Cl)cc2S(=O)(=O)F)c(Cl)c1
T/C (dose: 100.0 mg/kg/injection, schedule: Q01DX009 (ip), vehicle: saline sonified): 97 % of control | T/C (dose: 100.0 mg/kg/injection, schedule: Q04DX003 (ip), vehicle: saline sonified): 100 % of control | T/C (dose: 200.0 mg/kg/injection, schedule: Q01DX009 (ip), vehicle: saline sonified): 92 % of control | T/C (dose: 200.0 mg/kg/injection, schedule: Q04DX003 (ip), vehicle: saline sonified): 100 % of control | T/C (dose: 400.0 mg/kg/injection, schedule: Q01DX009 (ip), vehicle: saline sonified): 98 % of control | T/C (dose: 400.0 mg/kg/injection, schedule: Q04DX003 (ip), vehicle: saline sonified): 96 % of control

CC1=C2[C@H]3OC(=O)[C@@H](C)[C@@H]3CC[C@@]2(C)C=CC1=O
T/C [13]: 101 % of control | T/C [3]: 97 % of control | T/C [15]: 101 % of control | T/C [4]: 103 % of control

O=[N+]([O-])c1ccc(-c2cccc(Cl)c2)c([N+](=O)[O-])c1
T/C [1]: 91 % of control | T/C [2]: 91 % of control | T/C [14]: 95 % of control

COC(=O)C(CCCN=C(N)N[N+](=O)[O-])NC(=O)C(Cc1ccccc1)NC(=O)C1CCCN1C(=O)OCc1ccccc1 (stereo not drawn) (Cbz-Pro-Phe-[Arg(NO2)]-OMe; configuration not given here)
T/C [13]: 90 % of control | T/C [15]: 96 % of control | T/C [16]: 92 % of control

Reference: PubChem BioAssay AID248 (DTP/NCI, 2004)
